Data: patent US20200085782A1, “COMPOSITIONS AND METHODS OF ENHANCING OR AUGMENTING TYPE I IFN PRODUCTION” (Mavupharma, Inc., priority 2016, published 2020)

Assays:
[1] = molecular target: T1, human recombinant ENPP1 (Homo sapiens, UniProt P22413); experiment: ENPP1 assay with 2′,3′-cGAMP substrate (AMP-Glo); format: biochemical
T1 sequence (P22413 1-925): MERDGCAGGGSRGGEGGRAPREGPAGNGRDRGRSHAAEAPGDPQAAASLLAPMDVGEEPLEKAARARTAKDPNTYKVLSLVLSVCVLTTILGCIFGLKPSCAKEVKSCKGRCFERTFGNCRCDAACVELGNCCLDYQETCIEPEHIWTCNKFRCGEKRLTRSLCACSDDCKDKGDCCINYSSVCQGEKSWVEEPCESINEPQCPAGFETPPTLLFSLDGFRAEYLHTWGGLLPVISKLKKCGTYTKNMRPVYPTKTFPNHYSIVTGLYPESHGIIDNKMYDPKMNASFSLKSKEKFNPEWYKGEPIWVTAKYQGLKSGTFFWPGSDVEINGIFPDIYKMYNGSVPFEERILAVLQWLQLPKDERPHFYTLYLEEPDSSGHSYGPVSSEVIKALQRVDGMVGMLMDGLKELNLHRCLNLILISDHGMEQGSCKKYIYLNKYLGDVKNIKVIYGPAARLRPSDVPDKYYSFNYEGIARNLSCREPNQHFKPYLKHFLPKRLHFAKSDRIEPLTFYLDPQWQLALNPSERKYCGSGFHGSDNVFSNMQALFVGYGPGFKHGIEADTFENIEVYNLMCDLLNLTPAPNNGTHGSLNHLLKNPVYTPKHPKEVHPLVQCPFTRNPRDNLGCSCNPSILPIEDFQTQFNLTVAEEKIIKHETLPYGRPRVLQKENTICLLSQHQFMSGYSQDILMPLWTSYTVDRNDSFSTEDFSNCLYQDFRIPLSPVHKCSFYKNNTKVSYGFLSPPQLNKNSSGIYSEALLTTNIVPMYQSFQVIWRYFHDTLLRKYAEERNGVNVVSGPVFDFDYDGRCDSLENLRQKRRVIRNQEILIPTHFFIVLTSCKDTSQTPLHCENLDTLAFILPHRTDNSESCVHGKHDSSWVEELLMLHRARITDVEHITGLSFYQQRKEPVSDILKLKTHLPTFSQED
Protocol: The AMP-Glo™ Assay Kit contains two reagents that are added sequentially. The first converts the 5′-AMP produced in the reaction to 5′ADP. The second converts the 5′-ADP to 5′ATP and reacts the 5′-ATP with the luciferase/luciferin pair to produce the luminescence signal. […] Inhibitors are added at final concentrations ranging between 10 μM and 30 pM depending on the compound. Duplicate wells are run at each inhibitor concentration. The final assay volume is 18 μL and human recombinant ENPP1 is present at 5 ng/well. The assay is initiated by the addition of substrate (20 μM 2′3′cGAMP final concentration), and incubated for 30 minutes at 37° C. To stop the reaction, 12 μl of AMP-Glo reagent I is added and the plate is incubated for 60 minutes at room temperature. 25 μl of AMP-detection reagent is then added and the wells are again incubated for 60 minutes at room temperature. The luminescence signal is then measured using a plate-reading luminometer. Each assay plate also includes wells with no enzyme added (MIN OD) and wells with no inhibitor added (MAX OD). The percent inhibition of ENPP1 for each sample is then calculated as: […]
(§1) IC50 values of compounds were calculated by entering the percent inhibition values into a sigmoidal variable slope nonlinear regression model in GraphPad Prism® software. IC50 values were converted to Ki values using the Cheng-Prusoff equation2 where the Km was 15 μM, based on internal determinations.

[2] = molecular target: T1, human recombinant ENPP1; experiment: ENPP1 assay with AMP-pNP substrate (ATP analog), absorbance at 405 nm; format: biochemical; conditions: read-out: ENPP1 inhibition Ki, AMP-pNP Substrate
Protocol: ENPP1 is an ectonucleotidase that hydrolyzes both the STING activator 2′,3′-cGAMP and 5′ATP (ATP). In some instances, an inhibitor of ENPP-1 is capable of selectively blocking the hydrolysis of 2′,3′-cGAMP while only minimally inhibiting the hydrolysis of ATP. […] The ENPP1 assay with AMP-pNP substrate is conducted in a buffer containing 50 mM Tris-HCl (pH 8.5)/250 mM NaCl/0.5 mM CaCl2/1 μM ZnCl2/0.1% DMSO. Inhibitors are added at final concentrations ranging between 10 μM and 30 pM depending on the compound. Duplicate wells are run at each inhibitor concentration. The final assay volume is 40 μL and human recombinant ENPP1 is present at 60 ng/well. The assay is initiated by the addition of substrate (300 μM AMP-pNP final concentration), and incubated for 20 minutes at 37° C. The absorbance at 405 nm is then read in a Tecan® plate reader. Each assay plate also includes wells with no enzyme added (MIN OD) and wells with no inhibitor added (MAX OD). The percent inhibition of ENPP1 for each sample is then calculated as: […]
as §1, with “equation,” for “equation2”, “151” for “15”, “determinations” for “determinations.”

[3] = system: THP-1 cells; experiment: PDE inhibitors library screen on cGAMP activated THP-1 cells, IFNβ ELISA; format: cell-based, human; conditions: THP-1 cells activated with 2′,3′-cGAMP; test compound 10 μM; 24 hours; FIG. 3A-3C
Protocol: THP-1 Cell Activation and Screening of Test Compounds: • (a) THP-1 cells from bulk cultures were counted and suspended in RPMI 1640, 20% FBS, 2.5 mM L-alanyl-L-glutamine at a concentration of 5.5×10^6 cells/mL. The THP-1 cells were subsequently seeded into 96 well round bottom plates—volume of 180 μL/well (1×10^6 cells per well), and the plate was incubated for 1 hour at 37° C., 5% CO2. • (b) Test compounds comprising known phosphodiesterase inhibitors (PDEs), were screened in triplicate (N1, N2, N3) on THP-1 cells. For compound screening, test compounds were assayed at a final concentration of 10 μM. A 200 μM (0.2 mM) working solution of each compound was prepared by diluting 10 mM DMSO stock solutions of each compound in media at a dilution of 50:1 (1640, 20% FBS, 2.5 mM L-alanyl-L-glutamine). […] Cell culture supernatants were then transferred to a clean plate and stored at −80° C. until ready to analyze for IFNβ levels. • (j) IFNβ levels in cell culture supernatants were determined by ELISA according to the manufacturer's instructions (VeriKine Human IFNβ Assay). • (k) The interpolated data was normalized to vehicle control, or unstimulated control, and analyzed.

Row | SMILES | Substrate Selectivity Ki Ratio AMP-pNP/2′3′cGAMP ([1]; Ki (AMP-pNP)/Ki (2′3′-cGAMP)) | also measured
1 | COc1cc2ncnc(NCc3ccc(NS(N)(=O)=O)cc3)c2cc1OC [Compound 22] | 34.7 | 
2 | CN1CNc2ncnc(N3CCC(CCNS(C)(=O)=O)CC3)c21 [Compound 9] | >128 | 
3 | COc1cc2ncnc(-c3ccc(CNS(N)(=O)=O)cc3)c2cc1OC [Compound 17] | 48.3 | 
4 | COc1cc2nccc(Oc3ccc(NS(=O)(=O)c4ccccc4)cc3)c2cc1OC [Compound 25] | >6.80 | selectivity for inhibition of cGAMP over AMP-pNP hydrolysis by ENPP1 ([1]; Ki (AMP-pNP)/Ki (2′3′-cGAMP)): ~6.8 fold
5 | COc1cc2ncnc(N3CCC4(CC3)CN(S(C)(=O)=O)C4)c2cc1OC [Compound 24] | 18.7 | 
6 | COc1cc2ncnc(N3CCC4(CC3)CCN(S(C)(=O)=O)C4)c2cc1OC [Compound 19] | 44.8 | 
7 | COc1cc2ncnc(-c3ccc4c(c3)CN(S(N)(=O)=O)CC4)c2cc1OC [Compound 21] | 36.2 | 
8 | COc1cc2ccc(=O)n(Cc3ccc(NS(N)(=O)=O)cc3)c2cc1OC [Compound 10] | >127 | Ki ([1]; read-out: ENPP1 inhibition Ki, cGAMP Substrate): 0.234 µM; Ki [2]: > 30 µM
9 | CS(=O)(=O)N1CCc2ccc(-c3ncnc4ccccc34)cc2C1 [Compound 8] | >158 | 
10 | O=c1cc(-c2ccc(O)c(O)c2)oc2cc(O)cc(O)c12 [Compound 1] |  | inhibition at 1 µM ([1]; at 1 μM compound, AMP-GLO method, read-out: Inhibition of ENPP1 with cGAMP as the Substrate): 76%; inhibition at 10 µM ([1]; at 10 μM compound, AMP-GLO method, read-out: Inhibition of ENPP1 with cGAMP as the Substrate): 99%; cGAMP mediated IFNβ production [3]: augmentation of cGAMP mediated IFNβ production

Further lines, with some results ahead:

Row | Substrate Selectivity Ki Ratio AMP-pNP/2′3′cGAMP ([1]; Ki (AMP-pNP)/Ki (2′3′-cGAMP)) | SMILES | also measured
11 | >89.0 | CCN(C)S(=O)(=O)NCCC1CCN(c2ncnc3cc(OC)c(OC)cc23)CC1 [Compound 12] | 
12 | 244 | COc1cc2ncc(C#N)c(N3CCC(CCNS(C)(=O)=O)CC3)c2cc1OC [Compound 7] | 
13 | >642 | COc1cc2ncnc(N3CCC(CCN)CC3)c2cc1OC [Compound 5] | 
14 | >23.9 | COc1cc2nc(-c3ccccc3)nc(N3CCC(CCNS(N)(=O)=O)CC3)c2cc1OC [Compound 23] | 
15 | 47.7 | COc1cc2nc(N)nc(N3CCC(CCNS(N)(=O)=O)CC3)c2cc1OC [Compound 18] | 
16 | 86.7 | COc1cc2ncnc(N3CCC(CNS(N)(=O)=O)CC3)c2cc1OC [Compound 13] | 
17 | 57.3 | COc1cc2ncnc(N3CCN(C(=O)CNS(N)(=O)=O)CC3)c2cc1OC [Compound 15] | 
18 | >38.7 | CNc1nc(N2CCC(CCNS(N)(=O)=O)CC2)c2cc(OC)c(OC)cc2n1 [Compound 20] | 
